In general, MIC refers to the smallest concentration in the dilution series that meets the test's criterion for growth inhibition.

SMILES strings stand for the structures. In brackets after ≈: the same amount, converted by molar mass.

Experimental findings from patent publication US4898858A, “Cephalosporin derivatives and antibiotics containing the same” (Meiji Seika Kaisha Ltd., priority 1985, dated 1990) are described below.

One assay deals with Pseudomonas aeniginosa. Briefly: MIC, comparison of the compounds of the present invention and the relevant compounds. The assay is classed as cell-based. Particulars: Table 2, strain not given, by substituent B.
Assay [1] has as its system Proteus vulgais GN-76/C-1. Briefly: minimum growth-inhibitory concentration (MIC) in vitro. To be noted: for MIC: Proteus vulgaris, GN76, read-out: MIC-value.
Assay [2] has as its system Staphylococcus aureus 606. The assay is described as above. The assay is classed as cell-based.
In assay [3] the test system is Staphylococcus aureus 606 E-25. The assay is described as above. To be noted: 606E25. The format is cell-based.
Assay [4] relates to Staphylococcus aureus 209P JC-1. The assay is described as above. The assay is classed as cell-based.
Assay [5] relates to Streptocuccus faecalis W-75. The description is as above. The assay is classed as cell-based.
Another assay concerns Escherichia coli ML1410. The assay is described as above. The format is cell-based.
Assay [6] concerns Escherichia coli NIHJ JC-2. The description is as above. The assay is classed as cell-based. To be noted: NIHJJC2; Escherichia coli NIHJ JC-2; in vitro; read-out: MIC-value.
For the next assay, the system named is Escherichia coli No.29. The description is as above. The format is cell-based.
Assay [7] relates to Klebsiella pneumoniae GN-69. Described as above. The format is cell-based. Particulars: GN69; Klebsiella pneumoniae GN-69; in vitro; read-out: MIC-value.
Assay [8] concerns Klebsiella pneumoniae GN-118. The assay is described as above. The assay is classed as cell-based. To be noted: GN118.
Assay [9] has as its system Salmonella typhimurium LT-2. Described as above. The format is cell-based. Particulars: Salmonella enterica.
In assay [10] the test system is Salmonella enteritidis No.11. Described as above. The assay is classed as cell-based. To be noted: Salmonella enterica.
The next assay has as its system Proteus vulgais GN-76. The assay is described as above. The assay is classed as cell-based.
For a further assay, the system named is Proteus morganii 1510. The assay is described as above. The assay is classed as cell-based. Particulars: Morganella morganii.
Another assay deals with Proteus rettgeri GN-624. The assay is described as above. The format is cell-based. Particulars: Providencia rettgeri, GN624.
The next assay relates to Proteus rettgeri J-0026. The assay is described as above. The format is cell-based. Particulars: Providencia rettgeri, J0026.
In assay [11] the test system is Enterobacter Cloacae G-0005. Described as above. The assay is classed as cell-based.
The subject of assay [12] is Enterobacter Cloacae G-0008. Described as above. The assay is classed as cell-based.
For assay [13], the system named is Serratia marcescens GN-10857. Described as above. To be noted: GN10857. The assay is classed as cell-based.
Assay [14] deals with Serratia marcescens GN-629. Described as above. The format is cell-based. To be noted: GN629.
In assay [15] the test system is Pseudomonas aeruginosa GN-10362. The description is as above. The assay is classed as cell-based. To be noted: GN10362.
In assay [16] the test system is Pseudomonas aeruginosa MB-3833. Described as above. The assay is classed as cell-based. To be noted: MB3833.
Assay [17] has as its system Pseudomonas aeruginosa E-2. Described as above. Particulars: E2. The format is cell-based.

`C[C@H](O/N=C(\C(=O)N[C@@H]1C(=O)N2C(C(=O)[O-])=C(CSc3cc[n+](C)cc3)CS[C@H]12)c1csc(N)n1)C(=O)O` [drawing 15] yielded an MIC with Pseudomonas aeniginosa of 0.78 µg/mL (≈ 1.35 µM). This molecule returned an MIC-value in assay [1] (Table 2, Proteus vulgaris GN76/C-1, by substituent B) of 0.05 µg/mL (≈ 0.0864 µM).
On to `C[C@H](O/N=C(\C(=O)N[C@@H]1C(=O)N2C(C(=O)[O-])=C(CSc3cc[n+](C)cc3)CS[C@H]12)c1csc(N)n1)C(=O)O` [Example 7, (6R,7R)-7-[(Z)-2-(2-Aminothiazol-4-yl)-2-{(1S)-carboxyethoxyimino}acetamid]-3-(1-methylpyridinium-4-ylthiomethyl)-ceph-3-em-4-carboxylate], for which the MIC is 3.13 µg/mL (≈ 5.41 µM) in assay [2]; 3.13 µg/mL (≈ 5.41 µM) in [3]; 1.56 µg/mL (≈ 2.7 µM) in [4]; 1.56 µg/mL (≈ 2.7 µM) in assay [5]; 0.1 µg/mL (≈ 0.173 µM) with Escherichia coli ML1410; 0.1 µg/mL (≈ 0.173 µM) in assay [6]. Also, the MIC was 0.1 µg/mL (≈ 0.173 µM) in the assay with Escherichia coli No.29; less than 0.025 µg/mL in assay [7]; less than 0.025 µg/mL in assay [8]; less than 0.025 µg/mL in [9]; less than 0.025 µg/mL in assay [10]; 0.025 µg/mL (≈ 0.0432 µM) against Proteus vulgais GN-76. The MIC with Proteus morganii 1510 is 1.56 µg/mL (≈ 2.7 µM); in the assay on Proteus rettgeri GN-624, less than 0.025 µg/mL; in the assay with Proteus rettgeri J-0026, 0.1 µg/mL (≈ 0.173 µM); in assay [11], 0.05 µg/mL (≈ 0.0864 µM); in [12] it was 0.1 µg/mL (≈ 0.173 µM); in [13], 0.39 µg/mL (≈ 0.674 µM). Also, the MIC was found to be 0.1 µg/mL (≈ 0.173 µM) in [14]; 0.78 µg/mL (≈ 1.35 µM) in assay [15]; 0.78 µg/mL (≈ 1.35 µM) in assay [16]; 0.78 µg/mL (≈ 1.35 µM) in assay [17]; 0.05 µg/mL (≈ 0.0864 µM) in assay [1].
Take `C[C@@H](O/N=C(\C(=O)N[C@@H]1C(=O)N2C(C(=O)[O-])=C(CSc3cc[n+](CCF)cc3)CS[C@H]12)c1csc(N)n1)C(=O)O` [Example 2, (6R,7R)-7-[(Z)-2-(2-Aminothiazol-4-yl)-2-{(1R)-carboxyethoxyimino}acetamido]-3-[{1-(2-fluoroethyl)pyridinium}-4-ylthiomethyl]-ceph-3-em-4-carboxylate]: the MIC amounted to 6.25 µg/mL (≈ 10.2 µM) in [2]; 6.25 µg/mL (≈ 10.2 µM) in assay [3]; 3.13 µg/mL (≈ 5.13 µM) in [4]; 3.13 µg/mL (≈ 5.13 µM) in [5]; 0.2 µg/mL (≈ 0.328 µM) against Escherichia coli ML1410; 0.1 µg/mL (≈ 0.164 µM) in [6]. For the same molecule, the MIC with Escherichia coli No.29 was 0.1 µg/mL (≈ 0.164 µM); in assay [7], 0.05 µg/mL (≈ 0.0819 µM); in assay [8], 0.05 µg/mL (≈ 0.0819 µM); in assay [9], 0.05 µg/mL (≈ 0.0819 µM); in assay [10], less than 0.025 µg/mL; against Proteus vulgais GN-76 it was 0.1 µg/mL (≈ 0.164 µM). Also, the MIC against Proteus morganii 1510 stood at 1.56 µg/mL (≈ 2.55 µM); in the assay with Proteus rettgeri GN-624 it was 0.1 µg/mL (≈ 0.164 µM); against Proteus rettgeri J-0026, 0.2 µg/mL (≈ 0.328 µM); in assay [11] it was 0.2 µg/mL (≈ 0.328 µM); in assay [12], 0.2 µg/mL (≈ 0.328 µM); in [13], 3.13 µg/mL (≈ 5.13 µM). The minimum inhibitory concentration (MIC) in assay [14] amounted to 0.39 µg/mL (≈ 0.639 µM); in assay [15] it was 3.13 µg/mL (≈ 5.13 µM); in assay [16] it was 3.13 µg/mL (≈ 5.13 µM); in [17] it was 3.13 µg/mL (≈ 5.13 µM); in assay [1] it was 0.1 µg/mL (≈ 0.164 µM).
